The target in data set [1] is T1, Bile acid receptor (Homo sapiens, UniProt Q96RI1).
T1 sequence (Q96RI1 whole entry): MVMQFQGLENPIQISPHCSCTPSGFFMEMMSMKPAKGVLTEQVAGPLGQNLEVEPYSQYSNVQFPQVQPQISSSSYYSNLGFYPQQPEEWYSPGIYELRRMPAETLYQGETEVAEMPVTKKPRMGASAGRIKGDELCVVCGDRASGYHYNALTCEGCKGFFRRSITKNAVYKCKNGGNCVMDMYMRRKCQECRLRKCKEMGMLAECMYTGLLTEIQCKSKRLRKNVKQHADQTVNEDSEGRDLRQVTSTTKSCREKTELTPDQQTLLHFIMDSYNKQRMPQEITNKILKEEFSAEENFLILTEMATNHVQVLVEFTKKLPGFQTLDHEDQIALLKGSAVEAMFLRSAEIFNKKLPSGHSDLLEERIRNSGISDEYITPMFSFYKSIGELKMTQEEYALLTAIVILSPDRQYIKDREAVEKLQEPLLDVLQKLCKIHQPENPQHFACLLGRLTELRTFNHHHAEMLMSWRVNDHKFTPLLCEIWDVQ
In words: Activation of human FXR LBD expressed in HEK293T cells assessed as induction of receptor activation incubated for 12 to 14 hrs by luciferase reporter gene assay. Format: cell-based, HEK-293T. In general terms: Reporter assays use an easily measured gene product as a stand-in for the process of interest.

In data set [2] the target is T2, Bile acid receptor (Homo sapiens) (UniProt Q96RI1).
T2 sequence (whole entry): T1 sequence (Q96RI1 whole entry)
In words: Activation of human FXR LBD expressed in HEK293T cells assessed as induction of receptor activation at 1 uM incubated for 12 to 14 hrs by luciferase reporter gene assay relative to GW4064. Format: cell-based. The settings on record: HEK-293T.

The target of data set [3] is T2, Bile acid receptor (Homo sapiens). In words: Activation of human FXR LBD expressed in HEK293T cells assessed as induction of receptor activation at 10 uM incubated for 12 to 14 hrs by luciferase reporter gene assay. Format: cell-based. The settings on record: HEK-293T.
The target is the same in data set [4]. In words: Activation of human FXR LBD expressed in HEK293T cells assessed as induction of receptor activation at 1 to 3 uM incubated for 12 to 14 hrs by luciferase reporter gene assay. The class given is cell-based. The following applies: HEK-293T.
Data set [5] shares this target. In words: Activation of FXR in human HepG2 cells assessed as increase in SHP mRNA expression at 3 uM incubated for 8 hrs by quantitative real time PCR analysis. The class given is cell-based. For orientation: Real-time PCR tracks product formation cycle by cycle.
Data set [6] is described as follows: Aqueous solubility in pH 8 buffer by HPLC analysis. The class given is physicochemical.

Converted amounts (≈) assume the structure as drawn. The source made the active and inactive calls. No cut-off for these calls is given here.

As to `CC(C)c1onc(-c2c(Cl)cccc2Cl)c1COc1ccc(CNc2ccc(CC(=O)O)cc2)c(Cl)c1`, in data set [1], the EC50 – broadly, the concentration giving half of the maximal effect – turned out to be 940 nM. For the same molecule, the %max in data set [2] worked out at 31%. Also, the result in data set [3], in data set [4] and in data set [5] was Active. Besides, the solubility (usually how much of the substance goes into solution per volume) in data set [6] was 159 µg/mL (≈ 284 µM).

For the origin of these results see ChEMBL document CHEMBL4627415, “Design and Structural Optimization of Dual FXR/PPARδ Activators” (J Med Chem, 2020).
